Data on 11 compounds can be found in patent publication US7601716B2, “Pyridopyrazines and derivatives thereof as ALK and c-Met inhibitors” (Cephalon, Inc., priority 2006, dated 2009).

The target of series [1] is baculovirus-expressed ALK (Homo sapiens, UniProt Q9UM73). Nature of the series: ALK Kinase Assay (ELISA/TRF, PLC-γ substrate). Also: 1 µM ATP (Km level). The series is classed as biochemical. Conditions: read-out: ALK Kinase Inhibition (IC50). Put shortly:
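An ELISA adapted from a trkA format was used: wells carried GST-fused PLC-γ substrate, and enzyme addition (30 ng/ml ALK) started a 15-minute reaction at 37° C.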
In general terms: In an ELISA, binding on a coated surface is turned into a signal by an enzyme label.

The target of series [2] is T1, c-Met (cytoplasmic domain) (Homo sapiens, UniProt P08581).
T1 construct: Reactions were initiated with 30 ng/mL c-Met (cytoplasmic domain, Invitrogen Corporation #PV3143); purchased Invitrogen Corporation PV3143
Nature of the series: c-Met Kinase Assay (ELISA/TRF, PLC-γ substrate). The series is classed as biochemical. Conditions: 3 μM ATP (Km level); read-out: c-Met Kinase Inhibition (IC50). Put shortly:
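c-Met cytoplasmic domain (30 ng/mL) phosphorylates plate-coated GST–PLC-γ for 15 min at 37 °C. Phosphotyrosine detected with Eu-labeled PT66 antibody by time-resolved fluorescence. IC50 from variable-slope sigmoidal fit of % inhibition vs log concentration.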

baculovirus-expressed ALK, sequence (Q9UM73 19-1620): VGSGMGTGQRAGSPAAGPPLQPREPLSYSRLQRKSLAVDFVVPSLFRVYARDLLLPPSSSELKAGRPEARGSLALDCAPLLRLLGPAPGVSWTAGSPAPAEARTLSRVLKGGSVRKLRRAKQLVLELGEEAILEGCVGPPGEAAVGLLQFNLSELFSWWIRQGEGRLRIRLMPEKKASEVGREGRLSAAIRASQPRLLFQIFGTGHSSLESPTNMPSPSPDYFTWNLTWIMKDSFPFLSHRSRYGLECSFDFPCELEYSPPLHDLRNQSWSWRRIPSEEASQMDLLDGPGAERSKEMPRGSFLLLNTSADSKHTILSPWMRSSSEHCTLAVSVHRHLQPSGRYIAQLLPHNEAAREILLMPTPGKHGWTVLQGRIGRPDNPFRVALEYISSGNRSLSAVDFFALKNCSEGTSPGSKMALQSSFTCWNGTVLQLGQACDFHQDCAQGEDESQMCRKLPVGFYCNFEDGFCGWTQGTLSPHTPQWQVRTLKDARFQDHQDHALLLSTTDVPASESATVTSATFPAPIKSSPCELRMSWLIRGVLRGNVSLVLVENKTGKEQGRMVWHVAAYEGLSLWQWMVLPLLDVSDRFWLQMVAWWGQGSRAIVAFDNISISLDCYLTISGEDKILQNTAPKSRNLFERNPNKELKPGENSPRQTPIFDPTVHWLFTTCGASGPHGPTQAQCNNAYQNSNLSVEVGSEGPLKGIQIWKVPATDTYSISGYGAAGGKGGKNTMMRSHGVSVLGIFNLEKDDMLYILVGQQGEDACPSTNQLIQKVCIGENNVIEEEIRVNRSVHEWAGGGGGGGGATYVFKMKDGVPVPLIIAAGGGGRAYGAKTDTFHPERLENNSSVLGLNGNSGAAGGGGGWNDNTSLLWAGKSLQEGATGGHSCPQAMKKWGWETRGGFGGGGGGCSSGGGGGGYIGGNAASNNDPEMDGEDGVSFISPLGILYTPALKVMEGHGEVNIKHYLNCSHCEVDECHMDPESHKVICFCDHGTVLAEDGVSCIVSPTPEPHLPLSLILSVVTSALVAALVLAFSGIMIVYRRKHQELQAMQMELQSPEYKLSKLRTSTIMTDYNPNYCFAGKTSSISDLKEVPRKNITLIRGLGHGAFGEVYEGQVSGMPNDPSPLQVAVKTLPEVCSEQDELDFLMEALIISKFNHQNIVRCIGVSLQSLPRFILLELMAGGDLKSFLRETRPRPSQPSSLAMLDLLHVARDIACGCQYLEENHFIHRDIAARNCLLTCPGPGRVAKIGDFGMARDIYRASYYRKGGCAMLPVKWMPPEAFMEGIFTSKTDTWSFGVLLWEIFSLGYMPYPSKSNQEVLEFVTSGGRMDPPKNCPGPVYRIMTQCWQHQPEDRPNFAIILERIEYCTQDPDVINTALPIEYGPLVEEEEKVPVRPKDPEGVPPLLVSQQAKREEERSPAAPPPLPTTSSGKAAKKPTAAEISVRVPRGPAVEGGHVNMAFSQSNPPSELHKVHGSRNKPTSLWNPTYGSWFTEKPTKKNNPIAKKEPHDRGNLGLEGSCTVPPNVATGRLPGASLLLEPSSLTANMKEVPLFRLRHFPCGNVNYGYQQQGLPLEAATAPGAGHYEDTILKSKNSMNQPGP
T1 sequence (P08581 956-1390 limits assumed): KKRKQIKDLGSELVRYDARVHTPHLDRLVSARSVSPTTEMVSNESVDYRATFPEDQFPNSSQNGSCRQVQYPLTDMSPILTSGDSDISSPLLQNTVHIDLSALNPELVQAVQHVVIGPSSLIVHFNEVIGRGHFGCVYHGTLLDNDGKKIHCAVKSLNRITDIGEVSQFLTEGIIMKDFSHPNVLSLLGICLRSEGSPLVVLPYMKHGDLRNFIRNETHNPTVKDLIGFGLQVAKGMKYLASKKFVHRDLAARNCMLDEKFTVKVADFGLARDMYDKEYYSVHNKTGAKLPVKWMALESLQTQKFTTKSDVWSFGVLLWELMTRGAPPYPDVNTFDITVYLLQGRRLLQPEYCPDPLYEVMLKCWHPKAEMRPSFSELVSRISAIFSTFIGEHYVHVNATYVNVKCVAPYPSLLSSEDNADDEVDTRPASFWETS

As usually defined, the IC50 is the point on the concentration scale where inhibition reaches its midpoint. Usually melting point stands for the temperature of the solid-liquid transition. With `CN1CCN(c2ccc(-c3cnc4c(c3)C(O)CCN4)cn2)CC1` (stereo not drawn) [Example 269, 6-[6-(4-Methyl-piperazin-1-yl)pyridin-3-yl]-1,2,3,4-tetrahydro-[1,8]naphthyridin-4-ol], the melting point lay within 124 to 128 °C. Moreover, the IC50 in series [1] is over 100 µM. For the same compound, in series [2], the IC50 fell in the range of 10 to 100 µM.
On the same counts, the results for `O=C1CNc2ncc(I)cc2N1Cc1cc(F)ccc1C(F)(F)F` [Example 133, 1-(5-Fluoro-2-trifluoromethylbenzyl)-7-iodo-3,4-dihydro-1H-pyrido[2,3-b]pyrazin-2-one] are 244 to 245 °C, over 100 µM and over 100 µM.
`O=C(c1ccc(-c2cnc3c(c2)N(Cc2ccccc2)CCN3)cc1)N1CCC(N2CCCC2)CC1` [Example 39, [4-(1-Benzyl-1,2,3,4-tetrahydropyrido[2,3-b]pyrazin-7-yl)phenyl]-(4-(pyrrolidin-1-yl)piperidin-1-yl)methanone] showed a melting point of 120 °C. The 50% inhibitory concentration (IC50) in series [1] lay in the range of 1 to 10 µM. For the same compound, the IC50 in series [2] was in the range of 10 to 100 µM.
On the same counts, the results for `CCOC(=O)c1ccc(-c2cnc3c(c2)N(Cc2ccccc2OC(F)(F)F)CCN3)cc1` [Example 297, 4-{1-[2-(Trifluoromethoxy)benzyl]-1,2,3,4-tetrahydropyrido[2,3-b]pyrazin-7-yl}benzoic acid ethyl ester] are 153 °C, 1 to 10 µM and over 100 µM.
`CN(C)CCCNC(=O)c1ccc(-c2cnc3c(c2)N(C(=O)c2ccccc2)CCN3)cc1` [Example 53, 4-(1-Benzoyl-1,2,3,4-tetrahydropyrido[2,3-b]pyrazin-7-yl)-N-(3-dimethylamino-propyl)benzamide] had a melting point of 94 °C. Also, the concentration for half-maximal inhibition (IC50) in series [1] was over 100 µM. Further, the IC50 in series [2] lay in the range of 10 to 100 µM.
The compound `Clc1ccc(Cl)c(CN2CCNc3ncc(C4=CCNCC4)cc32)c1` [Example 131, 1-(2,5-Dichlorobenzyl)-7-(1,2,3,6-tetrahydropyridin-4-yl)-1,2,3,4-tetrahydropyrido[2,3-b]pyrazine] registered a melting point of 133 to 136 °C. Besides, in series [1], the IC50 lay in the range of 1 to 10 µM. In series [2], the IC50 lay within 1 to 10 µM.
`CCOC(=O)c1ccc(-c2cnc3c(c2)NC(=O)CN3)cc1` [Example 135, 4-(2-Oxo-1,2,3,4-tetrahydropyrido[2,3-b]pyrazin-7-yl)benzoic acid ethyl ester] came in with a melting point of over 200 °C. Also, the IC50 in series [1] was over 100 µM. Besides, in series [2], the IC50 is over 100 µM.
Compound `O=C1CNc2ncc(I)cc2N1Cc1cc(C(F)(F)F)ccc1Cl` [Example 116, 1-(2-Chloro-5-trifluoromethylbenzyl)-7-iodo-3,4-dihydro-1H-pyrido[2,3-b]pyrazin-2-one] showed a melting point of 252 to 253 °C. The IC50 in series [1] lay within 10 to 100 µM. Moreover, in series [2], the half-inhibitory concentration (IC50) is over 100 µM.
For `O=C1CNc2ncc(I)cc2N1Cc1cc(F)c(F)cc1F` [Example 81, 7-Iodo-1-(2,4,5-trifluorobenzyl)-3,4-dihydro-1H-pyrido[2,3-b]pyrazin-2-one], the melting point was in the range of 227 to 228 °C. In addition, the IC50 in series [1] was over 100 µM. Also, the IC50 in series [2] was over 100 µM.
With `N#Cc1ccc(-c2cnc3c(c2)N(Cc2ccccc2)C(=O)CN3)cn1` [Example 28, 5-(1-Benzyl-2-oxo-1,2,3,4-tetrahydropyrido[2,3-b]pyrazin-7-yl)pyridine-2-carbonitrile], the melting point is over 200 °C. Besides, in series [1], the IC50 is over 100 µM. Besides, the IC50 in series [2] is over 100 µM.
Consider `CN1CCN(c2ccc(-c3cnc4c(c3)N(Cc3c(F)ccc(F)c3Cl)CC(=O)N4)cn2)CC1` [Example 437, 1-(2-Chloro-3,6-difluorobenzyl)-7-[6-(4-methylpiperazin-1-yl)pyridin-3-yl]-1,4-dihydro-2H-pyrido[2,3-b]pyrazin-3-one], for which the melting point is 235 to 236 °C (dec.). The IC50 in series [1] lay in the range of 0.1 to 1 µM. For the same compound, the IC50 in series [2] is 1 to 10 µM.
